According to US9617257B2, “Fused pyridine derivatives useful as c-Met tyrosine kinase inhibitors” (BETA PHARMACEUTICALS CO., LTD., priority 2012, dated 2017):
pIC50: −log10 of the molar value. Read-outs that look alike come from different tables or passages of the source.

Legend:
U87-MG cells = assay: Cellular proliferation analysis (MTS assay), U87-MG; type: cell-based; details: Homo sapiens, U-87 MG, 168 h, read-out: IC50 U87-MG
Description: (§1) Cell proliferation analysis was conducted by the MTS assay protocol. Briefly, U87-MG cells will be cultured in EMEM medium, EBC-1 cells and SNU-5 cells will be cultured in MEM medium, MKN45 cells, NCI-H1975 cells and NCI-H1993 cells will be cultured in RPMI1640 medium, A549 cells will be cultured in McCoy's 5a medium. […] All culture media will be purchased from GIBCO (USA). The cells will be harvested respectively during the logarithmic growth period and counted with hemocytometer. […] Add […] cell suspensions to 96-well plates (triplicates for each cell concentration), the final cell densities are 2×10^4 or 1×10^4 or 5×10^3 cells/well. The density of 5×10^3 cells/well will be used for our first test. The appropriate cell density will be determined and adjusted according to the results of our first test. The next day, dissolve the test article or positive drugs with DMSO or PBS as stock solution. Dispense 2 μl drug solution in 1 ml culture media. Add 200 μl drug media into 96-well plates (triplicate for each drug concentration) after discard the old media. The final concentration of drug will be 0, 0.03, 0.1, 0.3, 1, 3, 10, 30 or 100 μM. The plates will be cultured for another 7 days, then measured by means of MTS assay. Prepare MTS/PMS solution immediately prior to use, pipet 20 μl of the mixture into each well of the 96 well assay plate containing 100 μl culture media. (The final reaction volume is 120 μl). Incubate the plate for 1-4 hours at 37° C. in a humidified, 5% CO2 atmosphere. Record the absorbance at 490 nm using Victor X5 microplate spectrophotometer.

MKN45 cells = assay: Cellular proliferation analysis (MTS assay), MKN45; type: cell-based; details: Homo sapiens, MKN-45, 168 h, read-out: IC50 MKN45
Description: as §1

EBC-1 cells = assay: Cellular proliferation analysis (MTS assay), EBC-1; type: cell-based; details: Homo sapiens, read-out: IC50 EBC-1
Description: as §1

Met (h) = biological target: T1, Met (h) (Homo sapiens, UniProt P08581); assay: Met (h) kinase assay (33P-ATP filter assay, performed by Millipore); type: biochemical; details: 0.2 μM test compound; remaining activity relative to DMSO control set to 100%; duplicate
T1 construct: purchased Millipore
T1 sequence (P08581 25-1390): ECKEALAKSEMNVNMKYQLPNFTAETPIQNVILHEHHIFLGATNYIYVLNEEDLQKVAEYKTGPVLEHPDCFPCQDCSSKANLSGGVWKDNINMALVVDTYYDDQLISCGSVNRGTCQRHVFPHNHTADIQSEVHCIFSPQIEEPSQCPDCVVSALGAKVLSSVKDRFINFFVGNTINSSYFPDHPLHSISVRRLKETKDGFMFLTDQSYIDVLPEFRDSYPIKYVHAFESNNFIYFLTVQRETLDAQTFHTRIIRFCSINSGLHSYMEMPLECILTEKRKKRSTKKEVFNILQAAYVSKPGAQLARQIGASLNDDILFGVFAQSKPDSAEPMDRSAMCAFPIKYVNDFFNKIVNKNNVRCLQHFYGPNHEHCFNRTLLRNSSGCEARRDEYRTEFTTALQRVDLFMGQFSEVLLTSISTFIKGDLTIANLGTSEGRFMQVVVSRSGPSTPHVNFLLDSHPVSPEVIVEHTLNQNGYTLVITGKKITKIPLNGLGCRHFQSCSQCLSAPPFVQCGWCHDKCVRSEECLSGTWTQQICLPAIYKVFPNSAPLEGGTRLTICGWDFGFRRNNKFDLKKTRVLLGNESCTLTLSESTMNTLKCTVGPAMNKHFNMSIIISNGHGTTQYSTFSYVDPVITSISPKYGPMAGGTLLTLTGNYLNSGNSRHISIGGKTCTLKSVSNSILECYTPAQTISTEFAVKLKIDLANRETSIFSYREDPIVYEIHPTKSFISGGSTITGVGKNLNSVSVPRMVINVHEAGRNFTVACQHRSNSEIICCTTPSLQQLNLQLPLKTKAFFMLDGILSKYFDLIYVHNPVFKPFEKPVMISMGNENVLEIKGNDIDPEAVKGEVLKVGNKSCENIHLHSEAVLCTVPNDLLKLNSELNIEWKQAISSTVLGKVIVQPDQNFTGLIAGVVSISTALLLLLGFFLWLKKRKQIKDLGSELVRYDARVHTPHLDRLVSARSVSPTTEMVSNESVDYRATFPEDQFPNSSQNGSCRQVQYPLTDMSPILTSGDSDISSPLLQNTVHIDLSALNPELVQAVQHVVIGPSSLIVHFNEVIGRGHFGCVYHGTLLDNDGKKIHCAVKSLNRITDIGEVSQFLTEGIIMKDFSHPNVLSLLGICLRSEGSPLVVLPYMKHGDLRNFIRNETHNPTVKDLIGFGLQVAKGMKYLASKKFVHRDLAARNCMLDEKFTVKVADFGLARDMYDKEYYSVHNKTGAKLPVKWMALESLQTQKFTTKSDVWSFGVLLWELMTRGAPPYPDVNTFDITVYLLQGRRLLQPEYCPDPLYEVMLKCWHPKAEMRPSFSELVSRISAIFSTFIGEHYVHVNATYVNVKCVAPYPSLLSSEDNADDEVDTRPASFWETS
Description: (specific activity approx. 500 cpm/pmol, concentration as required) and 0.2 μM test compound. The reaction is initiated by the addition of the MgATP mix. After incubation for 40 minutes at room temperature, the reaction is stopped by the addition of 3% phosphoric acid solution. 10 μL of the reaction is then spotted onto a P30 filtermat and washed three times for 5 minutes in 75 mM phosphoric acid and once in methanol prior to drying and scintillation counting. This assay is performed by Millipore. The experiment is carried out in duplicate. The value for the control sample (DMSO) was set to 100%, and the values for the compound-treated samples were expressed as activity relative to the control sample.

A549 cells = assay: Cellular proliferation analysis (MTS assay), A549; type: cell-based; details: Homo sapiens, read-out: IC50 A549
Description: as §1

NCI-H1975 cells = assay: Cellular proliferation analysis (MTS assay), NCI-H1975; type: cell-based; details: Homo sapiens, read-out: IC50 NCI-H1975
Description: as §1

EBC-1 tumors = details: oral gavage, vs vehicle control
Description: (§2) Human non small cell lung cancer cells A549, human gastric cancer cells MKN45, and human lung squamous cell carcinoma cells EBC-1 are expanded in culture, harvested, and injected subcutaneously onto the right flank of BALB/c nude mice. Testing compound is prepared in an appropriate vehicle and is administered by oral gavage when tumors are established (6-10 days after implant). Tumor response is determined by tumor volume measurement performed twice a week during the course of treatment. Tumor volume inhibition (% growth inhibition) is calculated by comparing treated groups to vehicle control group. Body weight is taken as a general measurement of toxicity.

MKN45 tumors = details: oral gavage, vs vehicle control
Description: as §2

A549 tumors = details: oral gavage, vs vehicle control
Description: as §2

NCI-H1993 cells = assay: Cellular proliferation analysis (MTS assay), NCI-H1993; type: cell-based; details: Homo sapiens, read-out: IC50 NCI-H1993
Description: as §1

SNU-5 cells = assay: Cellular proliferation analysis (MTS assay), SNU-5; type: cell-based; details: Homo sapiens, SNU-5, 168 h, read-out: IC50 SNU5
Description: as §1

[1] = 168 h, EBC-1 cells, 7 days, MTS
[2] = 168 h, NCI-H1975 cells, 7 days, MTS
[3] = 168 h, NCI-H1993 cells, 7 days, MTS

Row | SMILES | Activity (control) % (Met (h)) [%] | pIC50 (U87-MG cells; U87-MG cells, 7 days, MTS) | pIC50 (MKN45 cells; MKN45 cells, 7 days, MTS) | pIC50 (EBC-1 cells; [1]) | pIC50 (A549 cells; 168 h, A549 cells, 7 days, MTS) | pIC50 (NCI-H1975 cells; [2]) | pIC50 (NCI-H1993 cells; [3]) | pIC50 (SNU-5 cells; SNU5 cells, 7 days, MTS) | also measured
1 | O=C(Nc1ccc(Oc2ccnc3c2CCN3)c(F)c1)c1c[nH]cc(-c2ccc(F)cc2)c1=O [Example 1, N-(4-(2,3-dihydro-1H-pyrrolo[2,3-b]pyridin-4-yloxy)-3-fluorophenyl)-5-(4-fluorophenyl)-4-oxo-1,4-dihydropyridine-3-carboxamide] | 1 |  |  |  |  |  |  |  | pIC50 (U87-MG cells): 5.47; pIC50 (MKN45 cells): 6.40; pIC50 (EBC-1 cells; EBC-1, 168 h): 7.22; pIC50 (A549 cells; A549, 168 h): 4.81; pIC50 (NCI-H1975 cells; NCI-H1975, 168 h): 4.89; growth inhibition of EBC-1 tumors (EBC-1 tumors; 40 mg/kg (qd x17)): 56.5%; growth inhibition of EBC-1 tumors (EBC-1 tumors; 80 mg/kg (qd x17)): 100%; growth inhibition of MKN45 tumors (MKN45 tumors; 60 mg/kg (qd x22)): 38.9%; growth inhibition of MKN45 tumors (MKN45 tumors; 120 mg/kg (qd x22)): 71.9%; growth inhibition of A549 tumors (A549 tumors; 60 mg/kg (qd x24)): 76.6%; growth inhibition of A549 tumors (A549 tumors; 120 mg/kg (qd x24)): 96.7%; pIC50 (NCI-H1993 cells; NCI-H1993, 168 h): 6.40; pIC50 (SNU-5 cells): 6.05
2 | O=C(Nc1ccc(Oc2ccnc3c2OCCN3)c(F)c1)c1c[nH]cc(-c2ccc(F)cc2)c1=O [Example 3, N-(4-(3,4-dihydro-2H-pyrido[3,2-b][1,4]oxazin-8-yloxy)-3-fluorophenyl)-5-(4-fluorophenyl)-4-oxo-1,4-dihydropyridine-3-carboxamide] | 6 |  |  |  |  |  |  |  | pIC50 (U87-MG cells): 5.20; pIC50 (MKN45 cells): 5.21; pIC50 (EBC-1 cells; EBC-1, 168 h): 6.40; pIC50 (A549 cells; A549, 168 h): 4.70; pIC50 (NCI-H1975 cells; NCI-H1975, 168 h): 4.84; pIC50 (NCI-H1993 cells; NCI-H1993, 168 h): 5.82; pIC50 (SNU-5 cells): 5.51
3 | O=C(Nc1ccc(Oc2ccnc3c2CCN3)c(F)c1)c1cccn(-c2ccc(F)cc2)c1=O [Example 7, N-(4-(2,3-dihydro-1H-pyrrolo[2,3-b]pyridin-4-yloxy)-3-fluorophenyl)-1-(4-fluorophenyl)-2-oxo-1,2-dihydropyridine-3-carboxamide] | 11 | 5.29 | 5.17 | 5.03 | 4.63 | 4.75 | 5.34 | 5.11 | 
4 | O=C(Nc1ccc(Oc2ccnc3c2OCCN3)cc1)c1cccn(-c2ccc(F)cc2)c1=O [Example 9, N-(4-(3,4-dihydro-2H-pyrido[3,2-b][1,4]oxazin-8-yloxy)phenyl)-1-(4-fluorophenyl)-2-oxo-1,2-dihydropyridine-3-carboxamide] | 6 | 5.26 | 5.89 | 6.22 | 4.80 | 5.08 | 5.10 | 5.54 | 
5 | O=C(Nc1ccc(F)cc1)C1(C(=O)Nc2ccc(Oc3ccnc4c3CCN4)c(F)c2)CC1 [Example 12] | 15 | 5.42 | 4.94 | 4.95 | 4.69 | 4.63 | 5.04 | 5.03 | 
6 | Cc1c(C(=O)Nc2ccc(Oc3ccnc4c3CCN4)c(F)c2)c(=O)n(-c2ccccc2)n1C [Example 19, N-(4-(2,3-dihydro-1H-pyrrolo[2,3-b]pyridin-4-yloxy)-3-fluorophenyl)-1,5-dimethyl-3-oxo-2-phenyl-2,3-dihydro-1H-pyrazole-4-carboxamide] | 51 |  |  |  |  |  |  |  | 
7 | Cc1c(C(=O)Nc2ccc(Oc3ccnc4c3OCCN4)c(F)c2)c(=O)n(-c2ccccc2)n1C [Example 20, N-(4-(3,4-dihydro-2H-pyrido[3,2-b][1,4]oxazin-8-yloxy)-3-fluorophenyl)-1,5-dimethyl-3-oxo-2-phenyl-2,3-dihydro-1H-pyrazole-4-carboxamide] | 45 |  |  |  |  |  |  |  | 
8 | O=C(Nc1ccc(Oc2ccnc3c2OCCCN3)cc1)c1c[nH]cc(-c2ccc(F)cc2)c1=O [Example 56, 5-(4-Fluoro-phenyl)-4-oxo-1,4-dihydro-pyridine-3-carboxylic acid [4-(6,7,8,9-tetrahydro-5-oxa-1,9-diaza-benzocyclohepten-4-yloxy)-phenyl]-amide] | 2 | 5.33 | 5.92 | 7.00 | 4.74 | 4.84 | 6.15 | 5.77 | 
